# Read-outs that look alike come from different tables or passages of the source.
# Tests used:
# Assay in all cases: Colony formation (CFU) assay
# Assay type in all cases: cell-based
# 143B = conditions: Homo sapiens, bone
# Method: (§1) In vitro experiments were conducted using the colony formation unit (CFU) assay on various cell lines. The CFU assay involved first establishing what cell plating density enabled the development of clearly interspersed colonies on a six-well plate when left to grow for around 14 days. […] Media was changed on day 8 containing appropriate concentrations of DMSO, USP1 inhibitor, Niraparib, or Olaparib. At or around day 14 when clearly interspersed colonies were visible in the DMSO treated wells, the cells were fixed and stained using 0.1% crystal violet in 10% ethanol for 20 minutes at room temperature. The plates were imaged then the amount of crystal violet stain in each well was quantified by extracting the crystal violet into 10% acetic acid and the absorbance measured at 565 nm.
# (§2) IC50 values were calculated by fitting a two-parameter hill equation to the dose-response measurements. Non-linear-least-squares was used to find parameter values that minimize the squared error of the model fit to measured dose response. Non-linear-least-squares estimation was performed using the minpack.lm R package, version 1.2-1. Bliss synergy scores were calculated using the synergyfinder R package version 1.6.1.
# BICR22 = conditions: BICR22, head and neck
# Method: as §1, §2
# COV362 = test system: COV362
# Method: as §1, §2
# CW2 = conditions: Homo sapiens, CW-2, CW2, colon
# Method: as §1, §2
# HBCx17 = conditions: HBCx17, breast
# Method: as §1, §2
# HBCx9 = conditions: HBCx9, breast
# Method: as §1, §2
# HCC1438 = conditions: HCC1438, lung
# Method: as §1, §2
# HCC1806 = conditions: Homo sapiens, HCC1806, breast
# Method: as §1, §2
# HCT116 = conditions: Homo sapiens, HCT-116, HCT116, colon
# Method: as §1, §2
# HEC1B = conditions: Homo sapiens, HEC-1B, uterus
# Method: as §1, §2
# HPAC = conditions: Homo sapiens
# Method: as §1, §2
# HS578T = conditions: Homo sapiens, Hs-578T, breast
# Method: as §1, §2
# HS821T = conditions: bone
# Method: as §1, §2
# HS870T = conditions: bone
# Method: as §1, §2
# JHOS2 = conditions: for IC50: JHOS2, ovary; for activity as single agents: JHOS2, up to 300 nM
# Method: as §1, §2
# KMBC2 = conditions: KMBC2, bladder
# Method: as §1, §2
# KS1 = conditions: KS1, nervous system
# Method: as §1, §2
# KURAMOCHI = conditions: ovary
# Method: as §1, §2
# KYSE140 = conditions: Homo sapiens, KYSE-140; KYSE140, esophagus
# Method: as §1, §2
# MDAMB231 = conditions: Homo sapiens, MDA-MB-231; MDAMB231, breast
# Method: as §1, §2
# MDAMB436 = conditions: Homo sapiens, MDA-MB-436, MDAMB436, breast
# Method: as §1, §2
# MSTO211H = conditions: Homo sapiens, MSTO-211H
# Method: as §1, §2
# NCIH1373 = conditions: Homo sapiens, NCI-H1373; NCIH1373, lung
# Method: as §1, §2
# NCIH520 = conditions: Homo sapiens, NCI-H520, NCIH520, lung
# Method: as §1, §2
# NCIH838 = conditions: Homo sapiens, NCI-H838; NCIH838, lung
# Method: as §1, §2
# NOS1 = conditions: NOS1, bone
# Method: as §1, §2
# OVK18 = conditions: OVK18, ovary
# Method: as §1, §2
# SKES1 = conditions: Homo sapiens, SK-ES1; SKES1, bone
# Method: as §1, §2
# SKOV3 = conditions: Homo sapiens, SK-OV-3; SKOV3, ovary
# Method: as §1, §2
# SN12C = conditions: Homo sapiens, kidney
# Method: as §1, §2
# SNU119 = conditions: SNU119, ovary
# Method: as §1, §2
# SW948 = conditions: Homo sapiens; SW948, colon
# Method: as §1, §2
# TE11 = conditions: Homo sapiens, TE-11, TE11, esophagus
# Method: as §1, §2
# TE9 = conditions: Homo sapiens, TE-9; TE9, esophagus
# Method: as §1, §2
# UBLC1 = conditions: UBLC1, bladder
# Method: as §1, §2
# UWB1289BRCA1 = conditions: UWB1289BRCA1, ovary
# Method: as §1, §2
# VMRCRCZ = conditions: kidney
# Method: as §1, §2
# YKG1 = conditions: Homo sapiens, YKG-1; YKG1, nervous system
# Method: as §1, §2
smiles,measurement,setting,value
"COc1ncnc(C2CC2)c1-c1ncc2cnn(Cc3ccc(-c4nc(C(F)(F)F)cn4C)cc3)c2n1 [Formula II, 6-(4-cyclopropyl-6-methoxypyrimidin-5-yl)-1-(4-(1-methyl-4-(trifluoromethyl)-1H-imidazol-2-yl)benzyl)-1H-pyrazolo[3,4-d]pyrimidine]",IC50,143B,> 300 nM
same,IC50,BICR22,> 300 nM
same,IC50,COV362; COV362,> 300 nM
same,activity as single agents,COV362; COV362,modest activity
same,IC50,CW2,> 300 nM
same,IC50,HBCx17,> 300 nM
same,IC50,HBCx9,> 300 nM
same,IC50,HCC1438,> 300 nM
same,IC50,HCC1806,114 nM
same,IC50,HCT116,110 nM
same,IC50,HEC1B,> 300 nM
same,IC50,HPAC; pancreas,> 300 nM
same,IC50,HS578T,> 300 nM
same,IC50,HS821T,> 300 nM
same,IC50,HS870T,> 300 nM
same,IC50,JHOS2,> 300 nM
same,activity as single agents,JHOS2,little to no activity
same,IC50,KMBC2,> 300 nM
same,IC50,KS1,> 300 nM
same,IC50,KURAMOCHI,> 300 nM
same,IC50,KYSE140,> 300 nM
same,IC50,MDAMB231,> 300 nM
same,IC50,MDAMB436,6.46 nM
same,IC50,MSTO211H; lung,> 300 nM
same,IC50,NCIH1373,> 300 nM
same,IC50,NCIH520,> 300 nM
same,IC50,NCIH838,> 300 nM
same,IC50,NOS1,> 300 nM
same,IC50,OVK18,> 300 nM
same,IC50,SKES1,> 300 nM
same,IC50,SKOV3,> 300 nM
same,IC50,SN12C,64.7 nM
same,IC50,SNU119,> 300 nM
same,IC50,SW948,> 300 nM
same,IC50,TE11,134 nM
same,IC50,TE9,> 300 nM
same,IC50,UBLC1,> 300 nM
same,IC50,UWB1289BRCA1,139 nM
same,IC50,VMRCRCZ,> 300 nM
same,IC50,YKG1,> 300 nM
"NC(=O)c1cccc2cn(-c3ccc([C@@H]4CCCNC4)cc3)nc12 [Niraparib, niraparib, reference compound]",IC50,143B,> 300 nM
same,IC50,BICR22,> 300 nM
same,activity as single agents,COV362; COV362,modest activity
same,IC50,"COV362; COV362, ovary, read-out: IC50",177 nM
same,IC50,CW2,> 300 nM
same,IC50,HBCx17,13.8 nM
same,IC50,HBCx9,55.8 nM
same,IC50,HCC1438,42.5 nM
same,IC50,HCC1806,62.9 nM
same,IC50,HCT116,> 300 nM
same,IC50,HEC1B,> 300 nM
same,IC50,HPAC; pancreas,> 300 nM
same,IC50,HS578T,> 300 nM
same,IC50,HS821T,> 300 nM
same,IC50,HS870T,> 300 nM
same,IC50,JHOS2,> 300 nM
same,activity as single agents,JHOS2,little to no activity
same,IC50,KMBC2,> 300 nM
same,IC50,KS1,> 300 nM
same,IC50,KURAMOCHI,> 300 nM
same,IC50,KYSE140,> 300 nM
same,IC50,MDAMB231,> 300 nM
same,IC50,MDAMB436,4.73 nM
same,IC50,MSTO211H; lung,> 300 nM
same,IC50,NCIH1373,> 300 nM
same,IC50,NCIH520,> 300 nM
same,IC50,NCIH838,> 300 nM
same,IC50,NOS1,> 300 nM
same,IC50,OVK18,> 300 nM
same,IC50,SKES1,23.6 nM
same,IC50,SKOV3,> 300 nM
same,IC50,SN12C,> 300 nM
same,IC50,SNU119,39 nM
same,IC50,SW948,> 300 nM
same,IC50,TE11,176 nM
same,IC50,TE9,> 300 nM
same,IC50,UBLC1,> 300 nM
same,IC50,UWB1289BRCA1,186 nM
same,IC50,VMRCRCZ,> 300 nM
same,IC50,YKG1,> 300 nM
"COc1ncnc(C2CC2)c1-c1ncc2cnn(Cc3ccc(-c4nc(C(F)(F)F)cn4C(C)C)cc3)c2n1 [Formula I, 6-(4-cyclopropyl-6-methoxypyrimidin-5-yl)-1-(4-(1-isopropyl-4-(trifluoromethyl)-1H-imidazol-2-yl)benzyl)-1H-pyrazolo[3,4-d]pyrimidine]",IC50,"COV362; Table 2, COV362, ovary, read-out: IC50",203 nM
same,IC50,CW2; Table 2,67 nM
same,IC50,HCC1806; Table 2,62 nM
same,IC50,HCT116; Table 2,> 316 nM
same,IC50,"HPAC; Table 2, pancreas",> 316 nM
same,IC50,MDAMB436; Table 2,4.5 nM
same,IC50,"MSTO211H; Table 2, lung",> 316 nM
same,IC50,NCIH520; Table 2,> 316 nM
same,IC50,TE11; Table 2,> 316 nM
same,IC50,UWB1289BRCA1; Table 2,113 nM
